The test system of experiment [1] is draining lymph node CD8+ T cells. The experiment can be described thus: Mitochondria-related proteomics of draining lymph node CD8+ T cells of treated mice. The format is in vivo. The method, then:
T cells were prepared by two methods. For in vivo analysis, 13 days after tumor inoculation and 3 days after the start of therapy, draining lymph nodes from 5 mice were pooled, followed by isolation of CD8^+ T cells. From the isolated CD8^+ T cells, three samples each consisting of 1×10^6 cells were prepared and used for analysis. For in vitro experiments, 2×10^5 CD8^+ T cells stimulated with 0.2 μM spermidine for 1 hour were used. For mass spectrometry analysis, a Tandem Mass Tag (TMT) system or a Data Independent Acquisition (DIA) system was used. In the analysis of in vivo CD8^+ T cells (FIG. 3), those proteins which increased by 1.5-fold or more or decreased by 0.6-fold or less were extracted.

The subject of experiment [2] is CD44 low CD8+ T cells. The experiment can be described thus: Observation of mitochondria under electron microscope, CD44 low cells. In kind it is cell-based, mice. To be noted: SPD 0.2 μM, 1 hour. The procedure:
(§1) FIG. 5 CD8^+ T cells were isolated from the spleen of mice without tumor inoculation, and further isolated into CD44^+ (CD44 high) and CD44^− (CD44 low) cell populations. a) CD44 low cells were simulated with CD3/CD28 antibody beads and SPD (0.2 μM). […] Protein expression levels after 1 hour and 2 hours were confirmed by western blotting with the respective indicated antibodies. As regards statistical analysis, t-test was used for comparison of two groups. * p<0.05, ** p<0.01, *** p<0.001, **** p<0.0001.
(§2) CD8^+ T cells (2×10^5) were stimulated with 0.2 μM spermidine for 1 hour. Then, cells were harvested, embedded in Ipgell (GenoStaff) and fixed with 4% paraformaldehyde and 2% glutaraldehyde. Images were taken with a transmission electron microscope (TEM). Mitochondrial size was determined with ImageJ software. As regards mitochondrial number, average numbers in single cell were determined with Prism software. Blind testing was used for observation and analysis of mitochondria.

Experiment [3] has as its system CD44 high CD8+ T cells. The experiment can be described thus: Observation of mitochondria under electron microscope, CD44 high cells. The format is cell-based, mice. To be noted: SPD 0.2 μM, 1 hour. The procedure: as §1, §2
The test system of experiment [4] is AMPK and mTOR signaling. The experiment can be described thus: Western blotting of AMPK and mTOR signaling, CD44 low cells. In kind it is cell-based, mice. To be noted: presence or absence of SPD 0.2 μM, 1 hour and 2 hours. The method, then: as §1
CD8^+ T cells were isolated using mouse CD8 Microbeads (Miltenyi Biotec or Mojo). After washing with PBS twice, 2×10^6 cells were solubilized in a lysis buffer containing 30 mM Tris-HCl (pH. 7.4), 150 mM NaCl, 10% glycerol, 0.1% SDS, 1% Triton-X-100, 0.05% Na-Doc, 5 mM EDTA (pH. 8.0), protease inhibitor mixture (Roche Molecular Biochemicals) and phosphatase inhibitors (Nacalai Tesque). After measurement of protein concentrations by DC protein assay (Bio-Rad), 4 μg of proteins was mounted on 4 to 20% gradient Mini-PROTEAN TGX Gels (Bio-Rad) and electroblotted onto nitrocellulose membranes, which were then incubated in a blocking buffer of TBS containing 1% BSA. Primary antibody incubations were carried out overnight at 4° C. in blocking buffer. After washing, secondary antibody incubations were carried out at room temperature for 40 min in blocking buffer. […]

Experiment [5] concerns MC38 cells. The experiment can be described thus: MC38 therapy model in aged mice, tumor growth and survival. In kind it is in vivo. The settings on record: 56-week old mice; combination PD-L1 antibody (2 mg/kg) + SPD (2 mg/kg). The procedure:
FIG. 7 MC38 cells (5×10^5) were intradermally inoculated into 56-week old mice, which were treated along with the treatment schedule described in FIG. 1. PD-L1 antibody (2 mg/kg) and SPD (2 mg/kg) were used. a) Tumor growth curve and survival curve are shown. b) The frequency of CD8^+ T cells among lymphocytes infiltrating into tumor (in CD45^+ gate) and the absolute number of CD8^+ T cells per mg tumor 13 days after tumor inoculation are shown. c) CD8^+ T cells were isolated from spleen cells on the same schedule as b) and cultured for 20 hours under the stimulation with CD3/CD28. Cell proliferation was examined by means of ^3H uptake. d) CD8^+ T cells were isolated from draining lymph nodes on the same schedule as b) and glycolytic pathway-derived or mitochondrial metabolism-derived ATP production was calculated by Seahorse. e) Spare respiratory capacity (SRC) was also calculated in the experiment (d).
MC38 cells (5×10^5) were intradermally injected on the right flank. […] Tumors were measured on every alternate day, and tumor volumes were calculated using the formula for typical ellipsoid, π×(length×breadth×height/6).
It is known from mouse model experiments that the effect of PD-1 inhibitory antibody therapy decreases in aged mice due to their decreased immunity. […] Spare respiratory capacity (SRC) was also calculated. […]

SMILES strings stand for the structures.

As for `NCCCCNCCCN` [SPD, spermidine], the “levels of electron transport chain related proteins (Cytochrome, NADH dehydrogenase, ATPase)” value in experiment [1] (combined therapy compared to PD-1 inhibition alone) was “remarkably increased”. The “number of mitochondria-related proteins whose level changed significantly” value in experiment [1] (out of 203 proteins, combined therapy compared to PD-1 inhibition alone) is 184. The “pathway analysis: proteins associated with oxidative phosphorylation and metabolic pathways such as glycolysis” value in experiment [1] (proteins increased under combined therapy) is recorded as “occupied top positions”. In addition, in experiment [2], the mitochondrial size result is “no change” and the structure of cristae result was “denser structures of cristae”. Further, in experiment [3], the mitochondrial morphology result is on record as “fusion of mitochondria”, the “number of mitochondria per cell” value is given as “decreased”, the size per mitochondrion entry was “increased” and the structure of cristae entry was “damaged in structures”. The “AMPK and mTOR signaling” value in experiment [4] is “did not cause much difference”. Also, the tumor shrinking effect entry in experiment [5] is reported as “enhanced tumor shrinking effect”.

Values taken from patent US20220401385A1, “Combination Therapy Based on PD-1 Signaling Inhibitors” (Kyoto University, priority 2019, published 2022).
